Assays:
Assay type in all cases: cell-based
HeLa (cervical cancer) = experiment: Antiproliferative activity (CCK-8 cell viability), HeLa; details: Homo sapiens, 72 h, read-out: Antiproliferative activity in cancerous cells, HELA (inhibition of cell growth); for inhibition at 3.3 µM: Compound concentration: 3.3 μM; for inhibition at 10 µM: Compound concentration: 10 μM
Procedure, shortened: (§1)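 Cells were seeded at 2,000-5,000/well (HeLa in MEM, HepG2 and SW480 in DMEM, A549 in F-12K, all with 10% FBS) and treated with compound at 3.3, 10 or 30 μM for 72 h at 37° C. CCK-8 was added for 4 h, absorbance was read at 450 nm, and viability was expressed relative to DMSO-treated wells.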

[1] = test system: B16F10 (malignant melanoma); experiment: Antiproliferative activity (CCK-8 cell viability), B16F10; details: Mus musculus, 72 h; for inhibition at 3.3 µM: B16-F10, Compound concentration: 3.3 μM; for inhibition at 3.3 µM / inhibition at 10 µM: read-out: Antiproliferative activity in cancerous cells, B16F10 (inhibition of cell growth); for inhibition at 10 µM: B16-F10, Compound concentration: 10 μM
Procedure, shortened: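 Attached B16F10 cells in 96-well plates were incubated with compound at 37° C for 72 h, followed by 10 μL CCK-8 reagent per well and a further 4 h incubation. A multi-well plate reader measured absorbance at 450 nm. Percent viability across replicates was calculated against DMSO vehicle-treated cells.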

[2] = test system: A431 (epidermoid carcinoma); experiment: Antiproliferative activity (CCK-8 cell viability), A431; details: Homo sapiens, 72 h; for inhibition at 3.3 µM: A-431, Compound concentration: 3.3 μM; for inhibition at 3.3 µM / inhibition at 10 µM: read-out: Antiproliferative activity in cancerous cells, A431 (inhibition of cell growth); for inhibition at 10 µM: A-431, Compound concentration: 10 μM
Procedure, shortened: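 Cell viability of compound-treated A431 cells was measured with a Cell Counting Kit-8. Each well received 10 μL of CCK-8 after 72 h of compound exposure, followed by 4 h incubation at 37° C. and a 450 nm plate-reader measurement. Percent viability was calculated relative to DMSO controls across replicates.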

[3] = test system: A549 (lung adenocarcinoma); experiment: Antiproliferative activity (CCK-8 cell viability), A549; details: Homo sapiens, 72 h; for inhibition at 3.3 µM: Compound concentration: 3.3 μM; for inhibition at 3.3 µM / inhibition at 10 µM: read-out: Antiproliferative activity in cancerous cells, A549 (inhibition of cell growth); for inhibition at 10 µM: Compound concentration: 10 μM
Procedure, shortened: as §1

[4] = test system: alpha-smooth muscle actin (α-SMA); experiment: Inhibition of TGF-β induced expression of alpha-smooth muscle actin (α-SMA) in CFSC cells (western blot); details: compound at 10 μM, TGF-β (10 ng/mL), 24 hours, band intensity vs TGF-β only
Procedure, shortened: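 Values are percent reduction of α-SMA band intensity relative to cells given TGF-β alone, quantified by Western blot densitometry with β-actin probed. Compound was applied at 10 μM alongside 10 ng/mL TGF-β to serum-free CFSC cultures for 24 h at 37 °C.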

SW480 (colon cancer) = experiment: Antiproliferative activity (CCK-8 cell viability), SW480; details: Homo sapiens, 72 h, read-out: Antiproliferative activity in cancerous cells, SW480 (inhibition of cell growth); for inhibition at 3.3 µM: Compound concentration: 3.3 μM; for inhibition at 10 µM: Compound concentration: 10 μM
Procedure, shortened: as §1

HepG2 (liver cancer) = experiment: Antiproliferative activity (CCK-8 cell viability), HepG2; details: Homo sapiens, 72 h, read-out: Antiproliferative activity in cancerous cells, HepG2 (inhibition of cell growth); for inhibition at 3.3 µM: Compound concentration: 3.3 μM; for inhibition at 10 µM: Compound concentration: 10 μM
Procedure, shortened: as §1

[5] = test system: MDA-MB-231 (breast cancer); experiment: Antiproliferative activity (CCK-8 cell viability), MDA-MB-231; details: Homo sapiens, 72 h, read-out: Antiproliferative activity in cancerous cells, MDA-MB-231 (inhibition of cell growth); for inhibition at 3.3 µM: Compound concentration: 3.3 μM; for inhibition at 10 µM: Compound concentration: 10 μM
Procedure, shortened: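 In this CCK-8 viability assay, MDA-MB-231 cells maintained in Dulbecco's modified Eagle's medium containing 10% fetal bovine serum were placed in 96-well plates (2,000-5,000 cells/well) and treated with compound for 72 h at 37° C. A 4 h incubation with 10 μL CCK-8 followed, plates were read at 450 nm, and viability was expressed against DMSO vehicle wells across replicates.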

With CC1=C(CCC(=O)O)c2ccccc2/C1=C\c1cccc(COc2ccccc2)c1 [B15, (Z)-3-(2-Methyl-1-(3-(phenoxymethyl)benzylidene)-1H-inden-3-yl)propanoic acid] the inhibition at 3.3 µM (HeLa (cervical cancer)) was 30 to 50%, the inhibition at 10 µM (HeLa (cervical cancer)) was no less than 50% and the inhibition at 3.3 µM [1] was no less than 50%. It also gave an inhibition at 10 µM [1] of no less than 50%, an inhibition at 3.3 µM [2] of no less than 50% and an inhibition at 10 µM [2] of no less than 50%. The inhibition at 3.3 µM [3] was 30 to 50%, the inhibition at 10 µM [3] was no less than 50% and the inhibition at 10 µM [4] was less than 30%. It also gave an inhibition at 3.3 µM (SW480 (colon cancer)) of no less than 50%, an inhibition at 10 µM (SW480 (colon cancer)) of no less than 50% and an inhibition at 3.3 µM (HepG2 (liver cancer)) of 30 to 50%. For the same compound, the inhibition at 10 µM (HepG2 (liver cancer)) was no less than 50%, the inhibition at 3.3 µM [5] was less than 30% and the inhibition at 10 µM [5] was no less than 50%.
COc1ccc2c(c1)C(CC(=O)O)=C(C)/C2=C/c1cccc(COc2ccccc2)c1 [B20, (Z)-2-(5-Methoxy-2-methyl-1-(3-(phenoxymethyl)benzylidene)-1H-inden-3-yl)-acetic acid] was tested, and the inhibition at 3.3 µM (HeLa (cervical cancer)) was less than 30%, the inhibition at 10 µM (HeLa (cervical cancer)) was 30 to 50% and the inhibition at 3.3 µM [1] was less than 30%. It also gave an inhibition at 10 µM [1] of less than 30%, an inhibition at 30 µM ([1]; B16-F10, Compound concentration: 30 μM, read-out: Antiproliferative activity in cancerous cells, B16F10) of less than 30% and an inhibition at 3.3 µM [2] of less than 30%. For the same compound, the inhibition at 10 µM [2] was less than 30%, the inhibition at 30 µM ([2]; A-431, Compound concentration: 30 μM, read-out: Antiproliferative activity in cancerous cells, A431) was less than 30% and the inhibition at 3.3 µM [3] was less than 30%. It also gave an inhibition at 10 µM [3] of less than 30%, an inhibition at 30 µM ([3]; Compound concentration: 30 μM, read-out: Antiproliferative activity in cancerous cells, A549) of less than 30% and an inhibition at 10 µM [4] greater than 80%. It also gave an inhibition at 3.3 µM (SW480 (colon cancer)) of 30 to 50%, an inhibition at 10 µM (SW480 (colon cancer)) of 30 to 50% and an inhibition at 3.3 µM (HepG2 (liver cancer)) of less than 30%. For the same compound, the inhibition at 10 µM (HepG2 (liver cancer)) was less than 30%, the inhibition at 3.3 µM [5] was 30 to 50% and the inhibition at 10 µM [5] was 30 to 50%.
With O=C(O)CC1=C(CC2CCCC2)/C(=C/c2ccc(COc3ccccc3)cc2)c2ccc(F)cc21 [A3, (Z)-2-(2-(Cyclopentylmethyl)-5-fluoro-1-(4-(phenoxymethyl)benzylidene)-1H-inden-3-yl)acetic acid] the inhibition at 3.3 µM (HeLa (cervical cancer)) was 30 to 50%, the inhibition at 10 µM (HeLa (cervical cancer)) was no less than 50% and the inhibition at 3.3 µM [1] was no less than 50%. The inhibition at 10 µM [1] was no less than 50%, the inhibition at 3.3 µM [2] was no less than 50% and the inhibition at 10 µM [2] was no less than 50%. For the same compound, the inhibition at 3.3 µM [3] was 30 to 50%, the inhibition at 10 µM [3] was no less than 50% and the inhibition at 10 µM [4] was greater than 80%. It also gave an inhibition at 3.3 µM (SW480 (colon cancer)) of no less than 50%, an inhibition at 10 µM (SW480 (colon cancer)) of no less than 50% and an inhibition at 3.3 µM (HepG2 (liver cancer)) of 30 to 50%. The inhibition at 10 µM (HepG2 (liver cancer)) was no less than 50%, the inhibition at 3.3 µM [5] was no less than 50% and the inhibition at 10 µM [5] was no less than 50%.
Work on O=C(O)CC1=C(Cc2ccc(C(F)(F)F)cc2)/C(=C/c2cccc(COc3ccccc3)c2)c2ccc(F)cc21 [A10, (Z)-2-(5-Fluoro-1-(3-(phenoxymethyl)benzylidene)-2-(4-(trifluoromethyl)-benzyl)-1H-inden-3-yl)acetic acid] yielded an inhibition at 3.3 µM (HeLa (cervical cancer)) of no less than 50%, an inhibition at 10 µM (HeLa (cervical cancer)) of no less than 50% and an inhibition at 3.3 µM [1] of no less than 50%. For the same compound, the inhibition at 10 µM [1] was no less than 50%, the inhibition at 3.3 µM [2] was no less than 50% and the inhibition at 10 µM [2] was no less than 50%. It also gave an inhibition at 3.3 µM [3] of 30 to 50%, an inhibition at 10 µM [3] of no less than 50% and an inhibition at 10 µM [4] greater than 80%. The inhibition at 3.3 µM (SW480 (colon cancer)) was no less than 50%, the inhibition at 10 µM (SW480 (colon cancer)) was no less than 50% and the inhibition at 3.3 µM (HepG2 (liver cancer)) was no less than 50%. The inhibition at 10 µM (HepG2 (liver cancer)) was no less than 50%, the inhibition at 3.3 µM [5] was no less than 50% and the inhibition at 10 µM [5] was no less than 50%.

— patent US20260184663A1, “INDENE COMPOUNDS, PHARMACEUTICAL COMPOSITIONS THEREOF, AND THEIR THERAPEUTIC APPLICATIONS” (NucMito Pharmaceuticals co. Ltd., priority 2022, published 2026)
